Key:
[1] = target: Beta-1 adrenergic receptor (Homo sapiens, UniProt P08588); experiment: DRUGMATRIX: Adrenergic beta1 radioligand binding (ligand: [125I] Cyanopindolol); assay type: cell membranes, CHO-K1, Membrane; conditions: cho-k1; Not Active = under 50% inhibition at 10 µM
Endothelin-1 receptor = target: T1, Endothelin-1 receptor (Homo sapiens, UniProt P25101); assay type: cell membranes, Membrane; conditions: cho-k1; also: in other assays of this panel Not Active means under 50% inhibition at 10 µM
T1 sequence (P25101 whole entry): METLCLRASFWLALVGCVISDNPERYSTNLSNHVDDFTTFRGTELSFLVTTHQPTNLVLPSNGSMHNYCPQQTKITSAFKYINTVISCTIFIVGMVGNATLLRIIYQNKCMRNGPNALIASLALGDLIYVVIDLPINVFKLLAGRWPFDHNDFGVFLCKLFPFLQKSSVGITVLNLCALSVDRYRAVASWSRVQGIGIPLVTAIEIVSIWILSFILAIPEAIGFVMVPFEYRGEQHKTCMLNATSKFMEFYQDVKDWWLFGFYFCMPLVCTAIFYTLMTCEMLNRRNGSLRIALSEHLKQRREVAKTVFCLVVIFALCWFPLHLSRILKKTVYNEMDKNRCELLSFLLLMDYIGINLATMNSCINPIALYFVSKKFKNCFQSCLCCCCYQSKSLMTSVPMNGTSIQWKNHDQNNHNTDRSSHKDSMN

[2] = DRUGMATRIX: GABAA, Muscimol, Central radioligand binding (ligand: [3H] Muscimol); assay type: cell membranes, Rattus norvegicus, Wistar, Brain, Membrane; conditions: Not Active = under 50% inhibition at 10 µM
[3] = DRUGMATRIX: Leukotriene, BLT (LTB4) radioligand binding (ligand: [3H]LTB4); assay type: cell membranes, Membrane; conditions: u-937; Not Active = under 50% inhibition at 10 µM
[4] = target: T2, Angiotensin-converting enzyme (Oryctolagus cuniculus, UniProt P12822); experiment: biochemical; assay type: tissue-based, Lung;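 also: enzymatic inhibition of angiotensin-converting enzyme measured with FAPGG as the substrate; in other assays of this panel Not Active means under 50% inhibition at 10 µM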
T2 sequence (P12822 whole entry): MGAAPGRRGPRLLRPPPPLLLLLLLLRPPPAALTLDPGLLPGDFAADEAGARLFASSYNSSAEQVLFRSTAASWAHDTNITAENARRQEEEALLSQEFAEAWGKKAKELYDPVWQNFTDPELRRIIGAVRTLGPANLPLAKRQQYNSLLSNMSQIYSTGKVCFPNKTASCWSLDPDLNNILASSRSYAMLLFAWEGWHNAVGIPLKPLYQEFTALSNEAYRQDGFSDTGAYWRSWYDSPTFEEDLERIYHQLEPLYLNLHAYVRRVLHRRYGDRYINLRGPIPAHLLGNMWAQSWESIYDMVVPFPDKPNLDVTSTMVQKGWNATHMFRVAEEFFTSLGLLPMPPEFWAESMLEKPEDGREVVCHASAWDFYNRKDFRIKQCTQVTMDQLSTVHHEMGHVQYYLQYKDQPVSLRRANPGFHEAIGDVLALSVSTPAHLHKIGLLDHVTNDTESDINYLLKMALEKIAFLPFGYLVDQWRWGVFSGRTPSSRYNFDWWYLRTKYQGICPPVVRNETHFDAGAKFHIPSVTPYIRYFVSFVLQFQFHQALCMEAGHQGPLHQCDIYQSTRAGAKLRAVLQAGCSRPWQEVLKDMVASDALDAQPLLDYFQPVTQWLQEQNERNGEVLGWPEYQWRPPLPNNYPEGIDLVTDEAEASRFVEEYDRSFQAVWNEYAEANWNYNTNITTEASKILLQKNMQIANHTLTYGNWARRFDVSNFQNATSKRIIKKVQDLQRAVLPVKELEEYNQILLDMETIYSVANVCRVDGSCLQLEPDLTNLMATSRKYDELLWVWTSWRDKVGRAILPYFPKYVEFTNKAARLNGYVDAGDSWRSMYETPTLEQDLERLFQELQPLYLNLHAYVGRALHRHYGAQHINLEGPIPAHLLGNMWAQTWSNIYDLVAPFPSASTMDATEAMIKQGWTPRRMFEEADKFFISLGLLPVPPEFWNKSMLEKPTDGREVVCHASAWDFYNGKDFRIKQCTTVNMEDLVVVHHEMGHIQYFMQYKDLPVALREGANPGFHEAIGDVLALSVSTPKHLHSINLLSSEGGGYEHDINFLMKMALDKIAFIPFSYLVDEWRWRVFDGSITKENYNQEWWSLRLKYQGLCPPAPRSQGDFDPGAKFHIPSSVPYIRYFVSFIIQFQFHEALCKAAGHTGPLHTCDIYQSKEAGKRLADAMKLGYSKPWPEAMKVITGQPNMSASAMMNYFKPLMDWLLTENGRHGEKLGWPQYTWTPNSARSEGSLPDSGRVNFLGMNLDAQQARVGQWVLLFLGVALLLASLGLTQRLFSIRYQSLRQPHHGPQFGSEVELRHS

[5] = target: Mitogen-activated protein kinase 14 (Homo sapiens, UniProt Q16539); set-up: species or system Escherichia coli;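 also: inhibition of p38alpha enzyme activity in a biochemical kinase assay, with myelin basic protein serving as substrate; in other assays of this panel Not Active means under 50% inhibition at 10 µM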
Acetylcholinesterase = Acetylcholinesterase (Homo sapiens, UniProt P22303); experiment: DRUGMATRIX: Acetylcholinesterase enzyme inhibition (substrate: acetylthiocholine); assay type: cell-based, HEK293; conditions: hek293; Not Active = under 50% inhibition at 10 µM
Sequence of Acetylcholinesterase (P22303 whole entry): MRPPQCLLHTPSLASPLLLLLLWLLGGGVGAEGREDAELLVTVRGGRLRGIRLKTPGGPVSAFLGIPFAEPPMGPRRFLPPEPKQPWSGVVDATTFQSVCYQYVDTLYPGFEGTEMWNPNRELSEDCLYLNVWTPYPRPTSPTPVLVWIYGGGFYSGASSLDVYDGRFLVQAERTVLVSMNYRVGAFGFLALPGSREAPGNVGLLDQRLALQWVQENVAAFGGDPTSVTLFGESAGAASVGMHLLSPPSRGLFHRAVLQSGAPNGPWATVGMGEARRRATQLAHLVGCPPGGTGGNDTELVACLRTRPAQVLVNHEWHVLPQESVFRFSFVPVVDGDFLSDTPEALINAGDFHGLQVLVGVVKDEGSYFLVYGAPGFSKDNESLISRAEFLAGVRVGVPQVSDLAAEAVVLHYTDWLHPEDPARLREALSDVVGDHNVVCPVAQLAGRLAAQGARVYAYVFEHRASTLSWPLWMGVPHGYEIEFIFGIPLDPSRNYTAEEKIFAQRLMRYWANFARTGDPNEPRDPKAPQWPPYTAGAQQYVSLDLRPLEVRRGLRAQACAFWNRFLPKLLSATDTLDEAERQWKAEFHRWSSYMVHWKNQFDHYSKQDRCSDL

Sequence of Mitogen-activated protein kinase 14 (Q16539 whole entry): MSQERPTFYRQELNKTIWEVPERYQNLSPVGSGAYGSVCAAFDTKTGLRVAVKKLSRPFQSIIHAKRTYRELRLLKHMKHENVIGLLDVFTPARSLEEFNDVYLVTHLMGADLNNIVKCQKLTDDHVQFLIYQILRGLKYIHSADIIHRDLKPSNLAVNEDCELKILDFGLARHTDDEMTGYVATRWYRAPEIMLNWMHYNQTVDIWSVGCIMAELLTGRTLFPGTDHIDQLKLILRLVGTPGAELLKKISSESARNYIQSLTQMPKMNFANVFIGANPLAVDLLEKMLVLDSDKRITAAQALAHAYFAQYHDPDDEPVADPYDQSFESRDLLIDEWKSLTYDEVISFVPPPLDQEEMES
Sequence of Beta-1 adrenergic receptor (P08588 whole entry): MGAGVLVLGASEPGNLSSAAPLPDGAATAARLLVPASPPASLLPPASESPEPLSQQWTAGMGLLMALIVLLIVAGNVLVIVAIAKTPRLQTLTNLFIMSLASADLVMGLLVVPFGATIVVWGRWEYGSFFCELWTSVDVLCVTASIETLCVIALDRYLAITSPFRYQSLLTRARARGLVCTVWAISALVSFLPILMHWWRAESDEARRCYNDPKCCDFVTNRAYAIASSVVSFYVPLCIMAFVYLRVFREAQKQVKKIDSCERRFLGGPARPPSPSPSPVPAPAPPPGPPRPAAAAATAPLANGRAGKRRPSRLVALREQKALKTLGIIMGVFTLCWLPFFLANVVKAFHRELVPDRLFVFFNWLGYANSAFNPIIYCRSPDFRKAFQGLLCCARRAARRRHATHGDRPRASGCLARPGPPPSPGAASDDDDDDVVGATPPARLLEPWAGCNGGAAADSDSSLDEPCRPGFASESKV

SMILES | IC50 [1] | IC50 (Endothelin-1 receptor) | IC50 [2] | Ki [2] | IC50 [3] | Ki [3] | IC50 [4] | IC50 [5] | IC50 (Acetylcholinesterase) | IC50 ([5]; read-out: IC50) [µM]
O=C(O)COC(=O)Cc1ccccc1Nc1c(Cl)cccc1Cl [ACECLOFENAC] | Not Active | Not Active | Not Active | Not Active | Not Active | Not Active | Not Active | Not Active | Not Active | –
COc1ccc(C[C@H](N)C(=O)N[C@H]2[C@@H](O)[C@H](n3cnc4c(N(C)C)ncnc43)O[C@@H]2CO)cc1 [PUROMYCIN] | Not Active | Not Active | Not Active | Not Active | Not Active | Not Active | Not Active | Not Active | Not Active | –
O=C(O)c1ccccc1 [BENZOIC ACID] | Not Active | Not Active | Not Active | Not Active | Not Active | Not Active | Not Active | Not Active | Not Active | –
C[C@H]1C[C@H]2[C@@H]3CCC4=CC(=O)C=C[C@]4(C)[C@@]3(F)[C@@H](O)C[C@]2(C)[C@@]1(O)C(=O)CO [BETAMETHASONE] | Not Active | Not Active | Not Active | Not Active | Not Active | Not Active | Not Active | Not Active | Not Active | –
Oc1ccccc1 [PHENOL] | Not Active | Not Active | Not Active | Not Active | Not Active | Not Active | Not Active | Not Active | Not Active | –
C[C@H](C(=O)O)c1ccc2oc(-c3ccc(F)cc3)nc2c1 [FLUNOXAPROFEN] | Not Active | Not Active | Not Active | Not Active | Not Active | Not Active | Not Active | Not Active | Not Active | –
C[C@@H]1[C@H](O)[C@@H](C)/C=C/C=C/C=C/C=C/C=C/C=C/C=C/[C@H](O[C@@H]2O[C@H](C)[C@@H](O)[C@H](N)[C@@H]2O)C[C@@H]2O[C@](O)(C[C@@H](O)C[C@@H](O)[C@H](O)CC[C@@H](O)C[C@@H](O)CC(=O)O[C@H]1C)C[C@H](O)[C@H]2C(=O)O [AMPHOTERICIN B] | Not Active | Not Active | Not Active | Not Active | Not Active | Not Active | Not Active | Not Active | Not Active | –
COc1cc(NC(C)CCCN)c2ncccc2c1 (stereo not given) [PRIMAQUINE] | Not Active | Not Active | Not Active | Not Active | Not Active | Not Active | Not Active | Not Active | Not Active | –
COc1cc(/C=C/C(=O)O)ccc1O [FERULATE] | Not Active | Not Active | Not Active | Not Active | Not Active | Not Active | Not Active | Not Active | Not Active | –
CNC[C@H](O)c1ccc(O)c(O)c1 [EPINEPHRINE] | Not Active | Not Active | Not Active | Not Active | Not Active | Not Active | Not Active | Not Active | Not Active | –
CCN1CCN(C(=O)N[C@@H](C(=O)N[C@@H]2C(=O)N3[C@@H]2SC(C)(C)[C@@H]3C(=O)O)c2ccccc2)C(=O)C1=O [PIPERACILLIN] | Not Active | Not Active | Not Active | Not Active | Not Active | Not Active | Not Active | Not Active | Not Active | –
C=CCN1CC[C@]23c4c5ccc(O)c4O[C@H]2/C(=N/N=C2\CC[C@@]4(O)[C@H]6Cc7ccc(O)c8c7[C@@]4(CCN6CC=C)[C@H]2O8)CC[C@@]3(O)[C@H]1C5 [NALOXONAZINE] | Not Active | Not Active | Not Active | Not Active | Not Active | Not Active | Not Active | Not Active | Not Active | –
c1ccc2c(c1)Nc1ccccc1S2 [PHENOTHIAZINE] | Not Active | Not Active | Not Active | Not Active | Not Active | Not Active | Not Active | Not Active | Not Active | –
Cl.NC[C@H]1CC[C@H](C(=O)Oc2ccc(CCC(=O)O)cc2)CC1 [CETRAXATE HYDROCHLORIDE] | Not Active | Not Active | Not Active | Not Active | Not Active | Not Active | Not Active | Not Active | Not Active | –
CN(CCOc1ccc(C[C@H](Nc2ccccc2C(=O)c2ccccc2)C(=O)O)cc1)c1ccccn1 | Not Active | Not Active | Not Active | Not Active | Not Active | Not Active | Not Active | Not Active | Not Active | –
Nc1nc(F)nc2c1ncn2[C@@H]1O[C@H](CO)[C@@H](O)[C@@H]1O [FLUDARABINE] | Not Active | Not Active | Not Active | Not Active | Not Active | Not Active | Not Active | Not Active | Not Active | –
OC[C@H]1OC2C3[C@@H](CO)OC(O[C@H]4[C@H](O)[C@@H](O)[C@@H](O[C@H]5[C@H](O)[C@@H](O)[C@@H](O[C@H]6[C@H](O)[C@@H](O)[C@@H](O[C@H]7[C@H](O)[C@@H](O)[C@@H](O[C@H]8[C@H](O)[C@@H](O)[C@@H](O[C@H]9[C@H](O)[C@@H](O)C(OC1[C@H](O)[C@H]2O)O[C@@H]9CO)O[C@@H]8CO)O[C@@H]7CO)O[C@@H]6CO)O[C@@H]5CO)O[C@@H]4CO)[C@H](O)[C@H]3O | Not Active | Not Active | Not Active | Not Active | Not Active | Not Active | Not Active | Not Active | Not Active | –
C=CCO [ALLYL ALCOHOL] | Not Active | Not Active | Not Active | Not Active | Not Active | Not Active | Not Active | Not Active | Not Active | –
C[C@]12CC[C@@H](O)C[C@@H]1CC[C@@H]1[C@@H]2CC[C@]2(C)C(=O)CC[C@@H]12 [ANDROSTERONE] | Not Active | Not Active | Not Active | Not Active | Not Active | Not Active | Not Active | Not Active | Not Active | –
COC(=O)Nc1nc2ccc(Sc3ccccc3)cc2[nH]1 [FENBENDAZOLE] | Not Active | Not Active | Not Active | Not Active | Not Active | Not Active | Not Active | – | Not Active | 3.19
